From paper PMC11432795, “Mutagenesis of the Peptide Inhibitor of ASIC3 Channel Introduces Binding to Thumb Domain of ASIC1a but Reduces Analgesic Activity” (Marine Drugs, 2024)
Positions of bridges follow the written chain, without caps; N, C: chain ends. Residues, ends and D or L forms follow the SMILES beside them.

Experiments:
[1] = CFA-induced hyperalgesia, von Frey test; type: in vivo, ICR mice; conditions: for increase in paw withdrawal threshold (PWT), significance by dose: 0.002, 0.02, 0.2 mg/kg i.m.
Method: In the CFA-induced hyperalgesia test, where CFA administration induces excess sensitivity to mechanical and thermal stimuli, the analgesic effects of peptides were assessed using von Frey filaments of varying forces (von Frey test) and a hot plate apparatus (hot plate test).
Adult male ICR mice (Animal Breeding Facility Branch of Shemyakin–Ovchinnikov Institute of Bioorganic Chemistry, Russian Academy of Sciences, Pushchino, Russia), weighing 20–25 g, were utilized. Animals were housed under controlled conditions, with a room temperature of 23 ± 2 °C, a 12 h light–dark cycle, and ad libitum access to food and water. Test substances were dissolved in saline. Peptides (Ugr9-1 and A23K at doses of 0.002, 0.02, and 0.2 mg/kg) and saline (for the control group) were administered intramuscularly 60 min prior to testing.
The abdominal constriction test of visceral pain (acetic acid-induced writhing pain model) and hyperalgesia induced by complete Freund’s adjuvant (CFA-induced inflammatory pain model) were performed as previously described.
For the von Frey filaments test, mice were positioned in a plastic chamber with access to the inflamed hind paw surface and an electronic von Frey filament (BIO-EVF, Bioseb, Vitrolles, France) was applied with gradually increasing pressure until withdrawal. Data, expressed as the strength of the applied mechanical stimulus from three applications, were averaged, with intervals between exposures of at least 1 min.
Statistical analysis was conducted using analysis of variance (ANOVA) with post hoc Tukey’s test, and data are presented as mean ± standard deviation (S.D.).

[2] = target: T1, rat ASIC3 channel (Rattus norvegicus, UniProt O35240); assay: Two-electrode voltage clamp, rat ASIC3 in X. laevis oocytes; type: cell-based; conditions: pH 5.5 stimulus, mean ± S.E.M., 5 cells; for nH: inhibition of rat ASIC3, conditioning pH 7.4; for IC50: rat ASIC3, X. laevis oocytes, TEVC, Vh −50 mV, conditioning pH 7.4, peptide 30 s before stimulus
T1 construct: expressed in transfected cells; host or cells: Xenopus laevis oocytes injected with mRNA made from pcDNA3.1-rat ASIC3
T1 sequence (O35240 1-533): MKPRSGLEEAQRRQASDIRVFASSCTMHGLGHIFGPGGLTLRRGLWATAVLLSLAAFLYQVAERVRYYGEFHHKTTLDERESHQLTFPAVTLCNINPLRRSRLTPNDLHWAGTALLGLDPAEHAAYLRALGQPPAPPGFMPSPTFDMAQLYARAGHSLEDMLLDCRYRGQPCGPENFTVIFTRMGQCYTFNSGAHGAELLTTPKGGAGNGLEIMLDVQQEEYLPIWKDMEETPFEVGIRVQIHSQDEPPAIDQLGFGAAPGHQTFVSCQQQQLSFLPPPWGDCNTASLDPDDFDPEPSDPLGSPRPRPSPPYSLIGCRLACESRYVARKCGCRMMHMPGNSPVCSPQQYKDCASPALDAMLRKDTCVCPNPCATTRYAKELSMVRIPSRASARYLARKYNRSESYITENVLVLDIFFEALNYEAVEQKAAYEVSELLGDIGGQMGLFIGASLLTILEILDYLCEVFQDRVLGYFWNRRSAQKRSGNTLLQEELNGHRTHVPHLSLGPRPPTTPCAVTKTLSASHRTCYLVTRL
Method: Figure 3 The effect of mutant peptides S16K and A23K on rat ASIC1a and ASIC3 channels. […] (B) Dose–response curves for the inhibitory effect of mutant peptides on ASIC1a. Each data point represents data from 5 cells. (C) Representative current traces of Ugr9-1, S16K, and A23K at a concentration of 12.5 µM on ASIC3. […] Each point represents data from 5 cells. The depicted currents were induced by a pH 5.5 stimulus following a conditioning pH of 7.4, with peptides applied for 30 s before the pH stimulus. The holding potential (Vh) was −50 mV, and the time interval between applications ranged from 1 to 2 min. Data are presented as mean ± S.E.M.
A small portion of the ovary was isolated from frogs under anesthesia induced by a 0.17% solution of procaine methanesulphonate (MS222) (Sigma), followed by treatment with collagenase (1 mg/mL) at room temperature for 2 h. Oocytes at stages IV and V, devoid of follicular membranes, were transferred to ND-96 medium (containing 96 mM NaCl, 5 mM HEPES, 2 mM KCl, 1.8 mM CaCl2, 1 mM MgCl2, pH 7.4). mRNA synthesis was performed from pcDNA3.1 vectors (Invitrogen, Carlsbad, CA, USA) containing the rat ASIC3 gene, as well as pCI vectors containing genes for rat ASIC1a, its mutant analogues, and ASIC1b. mRNA (2.5–10 ng) was then injected into the oocytes. For the ASIC1a/3 heteromeric channels, the mRNA encoding the ASIC1a and ASIC3 subunits were injected in a 1:5 ratio, respectively. Subsequently, the oocytes were incubated for 2–3 days at a temperature of 17–19 °C in ND96 medium supplemented with gentamicin and streptomycin (20 µg/mL each).
Whole-cell electrophysiological recordings of ASIC channels were conducted using a two-electrode voltage-clamp setup. Microelectrodes were filled with 3 M KCl. Recordings from oocytes were carried out at a holding potential of −50 mV, with data filtered at 10 Hz and sampled at a rate of 100 Hz using an L780M ADC (LCard, Moscow, Russia). The synchronized delivery of solutions into the chamber and recording of electrophysiological results were carried out using in-house software v.2. Activation of ASIC channels occurred through rapid pH changes in the solution, achieved by replacing the working solution in the chamber with ND96-based solutions at varying pH levels. Specifically, HEPES was substituted with 10 mM MES for pH 5.5–6.5 and MOPS for pH 6.7–7.0.
Fresh peptide solutions were meticulously prepared in ND96 buffer with a pH of 7.43 immediately before experiments, with strict control over the pH levels. Peptides were applied for 30 s at a conditioning pH of 7.43 before acid stimulation of the channel. The interval between applications was maintained at a minimum of 1.5 to 2 min.
Electrophysiological data analysis was conducted using OriginPro 2018 software (OriginLab, Northampton, MA, USA). Dose–response relationships for Ugr9a-1, S16K, and A23K peptides were fitted using a Hill function: F1(x) = A − A/(1 + (x/IC50)^nH), where F1(x) represents the amplitude of the current at concentration x of the peptide, A is the maximum amplitude of the current, IC50 is the half-maximum inhibitory concentration of the peptide, and nH is the Hill coefficient.

[3] = tested on: ASIC3 channels; conditions: ref [18],[19],[20]; cited from earlier work
Excerpt: The 29-amino acid peptide Ugr9a-1, isolated from the venom of the northern sea anemone Urticina grebelnyi, represents a structural class of toxins termed “boundless β-hairpin”.

Row | SMILES | increase in paw withdrawal threshold (maximum effect) ([1]; 0.02 mg/kg i.m., one hour before testing, n = 7) | increase in paw withdrawal threshold (PWT), significance by dose ([1]; one hour before testing, n = 7) | nH [2] | IC50 [2] | modulation of ASIC3 channels [3] | increase in PWT compared to Ugr9-1 ([1]; 0.02 mg/kg i.m., versus Ugr9-1)
1 | CC[C@H](C)[C@H](N)C(=O)N[C@@H](CO)C(=O)N[C@H](C(=O)N[C@@H](CC(=O)O)C(=O)N1CCC[C@H]1C(=O)N1CCC[C@H]1C(=O)N[C@H]1CSSC[C@@H]2NC(=O)[C@H](CC(N)=O)NC(=O)CNC(=O)[C@H](CO)NC(=O)CNC(=O)[C@H](CC(=O)O)NC(=O)[C@H](CCCNC(=N)N)NC(=O)[C@H](Cc3c[nH]cn3)NC(=O)[C@H](Cc3ccc(O)cc3)NC(=O)[C@H](CSSC[C@@H](C(=O)NCC(=O)N[C@@H](C)C(=O)N[C@H](C(=O)O)C(C)C)NC(=O)CNC(=O)[C@H](Cc3ccc(O)cc3)NC(=O)[C@H](C)NC(=O)[C@H](CC(=O)O)NC(=O)[C@H](Cc3ccc(O)cc3)NC(=O)[C@H](C(C)C)NC2=O)NC(=O)[C@H](Cc2ccccc2)NC(=O)[C@H](CCCNC(=N)N)NC1=O)[C@@H](C)CC [Ugr9-1] (H-ISIDPPCRFCYHRDGSGNCVYDAYGCGAV-OH; disulfide 7-19, 10-26) | 270% | significant increase in paw withdrawal threshold (PWT) at all doses | 2.33 ± 0.17 | 14.2 ± 0.96 µM | selectively modulates ASIC3 channels | 
2 | CC[C@H](C)[C@H](N)C(=O)N[C@@H](CO)C(=O)N[C@H](C(=O)N[C@@H](CC(=O)O)C(=O)N1CCC[C@H]1C(=O)N1CCC[C@H]1C(=O)N[C@H]1CSSC[C@@H]2NC(=O)[C@H](CC(N)=O)NC(=O)CNC(=O)[C@H](CO)NC(=O)CNC(=O)[C@H](CC(=O)O)NC(=O)[C@H](CCCNC(=N)N)NC(=O)[C@H](Cc3c[nH]cn3)NC(=O)[C@H](Cc3ccc(O)cc3)NC(=O)[C@H](CSSC[C@@H](C(=O)NCC(=O)N[C@@H](C)C(=O)N[C@H](C(=O)O)C(C)C)NC(=O)CNC(=O)[C@H](Cc3ccc(O)cc3)NC(=O)[C@H](CCCCN)NC(=O)[C@H](CC(=O)O)NC(=O)[C@H](Cc3ccc(O)cc3)NC(=O)[C@H](C(C)C)NC2=O)NC(=O)[C@H](Cc2ccccc2)NC(=O)[C@H](CCCNC(=N)N)NC1=O)[C@@H](C)CC [A23K] (H-ISIDPPCRFCYHRDGSGNCVYDKYGCGAV-OH; disulfide 7-19, 10-26) |  | significantly increased PWT only at 0.02 mg/kg | 3.58 ± 0.08 | 9.39 µM |  | more than three times less effectively than Ugr9-1
